Assay results published in a melting point compilation (Tetko et al.; mined from patent text by program, amines drawn as free bases though some values may be those of a salt).

Row | SMILES | melting point
1 | CCCCNC(=S)Nc1ccc(NNC=O)cc1 | 129 to 131 °C
2 | O=C(O)C[C@@H](Oc1c(Br)cc(-c2c3ccccc3c(Br)c3sc4ccccc4c23)cc1Br)C(=O)O | 163 to 164 °C
3 | CC(=O)N1CCC(n2nc(-c3c(-c4ccccc4)nn4ccccc34)ccc2=O)CC1 | 114 to 117 °C
4 | Nc1ccc(-c2c(-c3ccccc3)c(-c3ccccc3)c(-c3ccc(N)cc3)c(-c3ccccc3)c2-c2ccccc2)cc1 | 453 °C
5 | O=C(Nc1ccc(OC(F)(F)F)cc1)N1CCOC(c2ccc(Br)s2)=N1 | 139 to 140 °C
6 | [O-][N+]1=C(c2ccccc2F)c2cc(Cl)ccc2NC(C(=NO)N2CCOCC2)C1 (stereo not given) | 184 to 186 °C
7 | Cc1c(NC(=O)c2ccc(-c3ccc(C(F)(F)F)cc3)cc2F)ccc2cc(CN3CCCC3)cnc12 | 202 to 203 °C
8 | Cc1ccc(NC(=O)c2cccc(N(C)C)c2)cc1NC(=O)c1ccc(N(C)CCCN(C)C)cc1 | 178 to 179 °C
9 | COc1cccc2c1CC(C#N)CC2 (stereo not given) | 66 to 68 °C
10 | Oc1cc(OCc2ccccn2)ccc1/C=C/c1cc(/C=C/c2ccc3cc[nH]c3c2)n[nH]1 | 202 to 204 °C
11 | CN1C(=O)C(CCCN2CCN(c3ccc(F)cc3)CC2)Sc2ccccc21 (stereo not given) | 103 to 104 °C
12 | CC(C)(O)C(=O)c1ccc(Oc2ccc(C(=O)C(C)(C)O)cc2)cc1 | 96 to 99 °C
13 | Clc1ccc(C23CCN(CC2)C3)cn1 | 70 to 72 °C
14 | CCOC(=O)C(CC)Oc1ccc(-c2nc(-c3ccc(OC(CC)C(=O)OCC)cc3O)nc(-c3ccc(OC(CC)C(=O)OCC)cc3O)n2)c(O)c1 (stereo not given) | 101 to 105 °C
15 | CCOC(=O)CN(NC(=O)OC(C)(C)C)C(=O)OCc1ccccc1 | 117 to 119 °C
16 | NC1=NCC(COc2ccccc2[N+](=O)[O-])O1 (stereo not given) | 166 °C
17 | O=C(c1ccccc1)c1ccc2nc(C(F)(F)F)c(Br)nc2c1 | 152 to 154 °C
18 | NC(=O)c1cc(-c2ccncc2)sc1-c1ccncc1 | 240 to 242 °C
19 | Cn1cccc1C=CC1=CC(=O)C(C)(C)O1 | 98.5 to 100 °C
20 | CCOC(=O)CCCn1c(Nc2c(C)noc2C)nc2c(Cl)ccc(C(CC)CC)c21 | 135 to 138 °C
21 | COC(=O)C1=C(C)Nc2ccccc2NC1c1cccc(Cl)c1Cl (stereo not given) | 181 to 182 °C
22 | CCOC(=O)c1cc([N+](=O)[O-])c(C)nc1C(=O)OCC | 90 to 91.5 °C
23 | CCOc1ccc(C(=O)CC(C(=O)O)N2CCOCC2)cc1OC (stereo not given) | 157 °C
24 | C=CCN1CCc2cc(OC)c(O)c3c2C1Cc1cc(O)c(OC)cc1-3 (single isomer, unassigned; (+)) | 161 to 171 °C
25 | c1ccc2c(c1)Cc1cccnc1O2 | 87 to 88 °C

Row | SMILES | melting point
26 | C=CCC1C(=O)N(Cc2ccccc2)c2ccccc2NC1C (stereo not given) | 81 to 83 °C
27 | NC(=O)C1=CC=CN(CCc2ccc(Cl)s2)C1Oc1ccc(F)cc1 (stereo not given) | 78 to 80 °C
28 | CCOC(=O)C1=C(C)Nc2nc(N3CCOCC3)nc(N3CCOCC3)c2C1c1c(F)c(F)c(F)c(F)c1F (stereo not given) | 195 °C
29 | COC(=O)CCC(NC(=O)Cc1cc(C)c(C(=O)c2ccc(Cl)cc2)n1C)C(=O)OC (stereo not given) | 129 to 130 °C
30 | Cc1cc(NC(=O)OC(C)(C)C)c(N)cc1-c1ccc(F)cc1 | 112 °C
31 | C=CCn1c(=O)n(CC=C)c(=O)n(-c2cc(N3C(=O)C4=C(CCCC4)C3=O)c(F)cc2Cl)c1=O | 80 to 85 °C
32 | C=Cc1c(N)nc(-c2ccc(C)cc2)nc1C(=O)OC | 122 to 123 °C
33 | O=C(O)Cc1ccccc1OCCNC(=O)C1Cc2ccccc2N1S(=O)(=O)c1ccc(-c2cccc(C(F)(F)F)c2)cc1 (stereo not given) | 131 to 134 °C
34 | Cc1sc(-c2ccccc2)nc1COc1cc(CO)on1 | 84 to 85 °C
35 | O=C(c1ccc(-c2ncn[nH]2)cc1)N1Cc2cccn2Cc2ccccc21 | 225 to 227 °C
36 | CC(=O)Oc1cc2c(c3ccccc13)Nc1ccc(C)cc1S2 | 193 to 195 °C
37 | N#Cc1ccccc1CSc1nc2cnccc2[nH]1 | 200 to 202 °C
38 | CCC(CC)(CC(=O)Nc1cccc(OCc2ccc3ccccc3n2)c1)C(=O)O | 149 to 150 °C
39 | COc1cc(OC)nc(NC(=O)NS(=O)(=O)Nc2nc(OC)cc(OC)n2)n1 | 210 °C
40 | Cc1nc2cc(Cl)ccc2c(=O)n1C1CCC(=O)NC1=O (stereo not given) | 291 to 293 °C
41 | CC(=O)N(C)C(=O)Oc1cccc2c1OCO2 | 48 to 50 °C
42 | CCN(C(=O)C1CC1)c1cccc(-c2ccnc3c(Cl)cnn23)c1 | 150 to 151 °C
43 | CC(CO)Oc1cc(Oc2ccc(S(C)(=O)=O)cc2)cc2cc(C3=NCC(CCO)S3)[nH]c12 (stereo not given) | 165 to 169 °C
44 | Cn1nnnc1SCCCn1cc(C2=C(c3cn(C)c4ccccc34)C(=O)NC2=O)c2ccccc21 | 95 to 97 °C
45 | CCCCC1=NC2(CCCC2)C(=O)N1Cc1ccc(-c2ccccc2S(=O)(=O)Nc2onc(C)c2C)c(CC(C)C)c1 | 58 to 61 °C
46 | CCC(=O)c1cccc(Oc2nc(OC)cc(OC)n2)c1C(=O)OC | 120 to 122 °C
47 | CNc1nc(N)nc2c1ncn2C1OC(CO)C(O)C1F (stereo not given) | 172 °C
48 | COc1cc2c(cc1OC)C(=O)C(=Cc1cc(C)c([N+](=O)[O-])c(C)c1)C2 | 242 to 243 °C
49 | O=C1NC(=S)NC(=O)C1=Cc1ccc([N+](=O)[O-])s1 | 285 °C
50 | Nc1ccc(C(=O)NO)c(O)c1 | 180 to 181 °C

Row | SMILES | melting point
51 | CN(C)C=C(C=O)OCCO | 148 to 150 °C
52 | CC(C)(C)OC(=O)N1CCN(CC(=O)O)CC1 | 195 to 197 °C
53 | N#CN=C(Nc1cccnc1)NC(NC(=O)c1ccc(Cl)cc1)C12CC3CC(CC(C3)C1)C2 (stereo not given) | 209 to 210 °C
54 | CC(C)(C)OC(=O)COc1coc(CO)cc1=O | 90 to 92 °C
55 | CCOC(=O)c1c(-c2ccc(N)cc2)c(C#N)c(=O)n2ccccc12 | 260 to 262 °C
56 | CN(C)C1CCC(Nc2ncnc3sc4c(c23)CCC4)CC1 (stereo not given) | 97 to 98 °C
57 | CCNc1nc(C)c(-c2ccnc(Nc3cccc(S(=O)(=O)NCCO)c3)n2)s1 | 124 to 125 °C
58 | CCCCCCCCCCCC(=O)NCc1ccsc1 | 83 to 84 °C
59 | Cc1ccccc1N1CCc2c(C)nc3c(C)cccc3c21 | 126 to 128 °C
60 | CCOC(=O)c1ccc(OCC2CN(c3ccc(S(C)(=O)=O)nn3)CCO2)cc1 (stereo not given) | 197 °C
61 | COc1ccc2c(CCC(=O)O)nnc(-c3nccs3)c2c1 | 228 to 229 °C
62 | CCCCC(C)c1cc(O)c2c(c1)OC(C)(C)CC2C1=CCN(CCc2ccccc2)CC1 (stereo not given) | 141 to 143 °C
63 | Cn1cc2c(n1)CCCc1c-2cnn1C | 176 to 178 °C
64 | CCN(CC)C(=O)c1c(O)cc(C(F)(F)F)cc1-c1ccc(OC)c(OC)c1 | 161 °C
65 | Cc1ccc2c(c1)CC(=O)c1cc(F)ccc1S2 | 103 to 104 °C
66 | COc1cc(Nc2c(C#N)cnc3cc4cc(OC)c(OCCN5CCN(C)CC5)cc4cc23)c(Cl)cc1C | 220 to 227 °C
67 | NC(=O)N(O)CC=Cc1ccoc1 | 136 to 137 °C
68 | COC(=O)C(C)Oc1ccc(NC(=O)OCCOC(=O)Nc2ccc(OC(C)C(=O)OC)cc2)cc1 (stereo not given) | 98 to 100 °C
69 | COC1(c2cc(F)cc(Sc3ccc(/C(C)=N/O)c(O)c3)c2)CCOCC1 | 140 to 142 °C
70 | COc1ccc(C(=O)CCCCCBr)cc1Cl | 104 to 106 °C
71 | COc1ccc(C#CCCN2CCOC2=O)cc1OC | 78 to 79 °C
72 | O=c1[nH]c2ncc(-c3ccc(-n4ccnn4)cc3)nc2n1CC1CCCCC1 | 276 to 278 °C
73 | CC(C)C[C@H]1CN(Cc2ccccc2)C[C@@H]1C(=O)O | 236 to 239 °C
74 | O=C(O)c1ccc2c(c1)nc(-c1ccc(OC(c3cccc(F)c3)c3cccc(F)c3)cc1F)n2C1CCCCC1 | 242 to 243 °C
75 | O=C(CO)Nc1nc2c(Cl)cccc2s1 | 242 to 245 °C

Row | SMILES | melting point
76 | CNCC(=O)NC(=O)OC(C)(C)C | 103 °C
77 | NC(=O)c1ccc2nc(C(=O)NCc3ccnc(OCC4CCOC4)c3)[nH]c(=O)c2c1 (stereo not given) | 237 to 239 °C
78 | COc1ccc2c(c1)NCc1ccccc1O2 | 110 to 112 °C
79 | COc1cc(OCc2ccccc2)c(C23CC4CC(CC(C4)C2)C3)cc1Br | 124 to 126 °C
80 | O=C1c2c(-c3ccccc3)ccnc2OCCN1Cc1cc(C(F)(F)F)cc(C(F)(F)F)c1 | 200 to 201 °C
81 | O=c1ccc2c3ccccc3[nH]c2n1-c1ccccc1 | 308 to 309 °C
82 | CC(=O)N(C)CC(=O)c1ccc2c(c1)OCO2 | 99 to 101 °C
83 | Oc1ccc2nc(-c3ccc(O)c(F)c3)cc(C#Cc3ccccc3)c2c1 | 125 to 129 °C
84 | COc1c(C)c(N2CCN(c3ccc(C)cc3)CC2)c(C)c2c1OC(C)C2 (stereo not given) | 82 to 84 °C
85 | CC(C)Cn1cnc2c(N)nc3c(c21)CCNC3 | 220 to 223 °C
86 | CC(CCc1ccc(OCCO)cc1)NCC(O)c1cccc(Cl)c1 (stereo not given) | 103 to 105 °C
87 | NS(=O)(=O)CCC(O)COCc1ccccc1 (stereo not given) | 94 to 98 °C
88 | CSc1ccc2ncn(CCN3CCC(Nc4nc5ccccc5n4Cc4ccc(F)cc4)CC3)c(=O)c2c1 | 101 °C
89 | CNCC(O)C1=CNC2C=CC=CC12 (stereo not given) | 117 to 120 °C
90 | O=C(Nc1cccnn1)N1CCN(c2nccc(-c3cccc(F)c3F)n2)CC1 | 248 to 249 °C
91 | COc1ccc(-c2nc(-c3ccc(F)cc3)c(-c3ccc(S(C)(=O)=O)cc3)s2)cc1 | 187 to 189 °C
92 | Nc1ccc2c(c1)CC(NS(=O)(=O)c1ccccc1)C2 (stereo not given) | 105 to 107 °C
93 | COC(=O)CCC(C)C1CCC2C3CC=C4CC(OC(C)=O)CCC4(C)C3CCC12C (stereo not given) | 152 °C
94 | CCOCC(=O)NC1CCN(C[C@@]23C[C@@H](c4ccccc42)c2ccc(Cl)cc23)CC1 | 68 to 70 °C
95 | O=C1CCC(Nc2ncnc3c2ncn3C2OC(CO)C(O)C2O)N1 (stereo not given) | 198 to 200 °C
96 | O=C1NC(=O)C2(c3ccc4ncccc4n3)C=CC=CC12 (stereo not given) | 206 °C
97 | O=C(O)C(=O)CC(=O)c1cc(C(=O)CC(=O)C(=O)O)n(Cc2ccc(F)cc2)n1 | 215 to 217 °C
98 | COc1ncc(C2OC(CO)C(O)C2O)c(OC)n1 (stereo not given) | 138 to 139 °C
99 | CCOCC(=O)c1cc(C(C)(C)C)c(O)c(C(C)(C)C)c1 | 73 to 75 °C
100 | Clc1ccc2c(c1)c(-c1ccccc1)nc1nccn12 | 270 to 272 °C
